From US9951014B2, “Mammalian and bacterial nitric oxide synthase inhibitors” (Northwestern University, priority 2014, dated 2018)
Like-named read-outs stand apart in the source and are kept apart here.

Tests used:
[1] = target: bsNOS (Bacillus subtilis (strain 168), UniProt O34453); assay: Imidazole displacement, spectral binding constant KS
[2] = target: murine iNOS (Mus musculus (Mouse), UniProt P29477); assay: Oxyhemoglobin NO capture assay with purified NOS; type: biochemical
Procedure: (§1) The oxyhemoglobin NO assays were performed with purified NOSs using a Biotek Gen5™ microplate reader as previously reported. […] For iNOS, calmodulin and CaCl2 were omitted because iNOS is calcium independent. […] The calculated standard deviations of the assays were less than 10% with all NOSs. […] The selectivity of antagonism of nNOS was determined by calculating the ratios of the Ki values with iNOS or eNOS to those with rat nNOS.

[3] = target: bovine eNOS (Bos taurus (Bovine), UniProt P29473); assay: Oxyhemoglobin NO capture assay with purified NOS; type: biochemical
Procedure: as §1

[4] = target: rat nNOS (Rattus norvegicus (Rat), UniProt P29476); assay: Oxyhemoglobin NO capture assay with purified NOS; type: biochemical
Procedure: as §1

[5] = Plasma pharmacokinetics and brain distribution in mice; type: in vivo, male BALB/c mice; settings: for C0: back extrapolated conc.; for clearance / half-life: 2 mg/kg; for Vd: read-out: Vss
Procedure: Pharmacokinetic study. A group of forty-eight male mice were divided into two groups: Group 1 (2 mg/kg; i.v.) and Group 2 (10 mg/kg; p.o.) with each group comprising twenty-four mice. […] The blood samples were collected from a set of three mice at each time point in labeled micro centrifuge tubes containing K2EDTA as anticoagulant. Plasma samples were separated by centrifugation of whole blood and stored below −70° C. until bioanalysis. […] Tissue samples were homogenized using ice-cold phosphate buffer saline (pH 7.4) and homogenates were stored below −70° C. until analyzed. The total homogenate volume was three times that of the tissue weight. […] Specific LC-MS/MS and MRM conditions are described below. Pharmacokinetic parameters were calculated using the non-compartmental analysis tool of Phoenix WinNonlin (Version 6.3).

[6] = ratio Ki iNOS / Ki rat nNOS, Table 9
[7] = ratio Ki eNOS / Ki rat nNOS, Table 9
[8] = ratio Ki iNOS / Ki nNOS, Table 13
[9] = ratio Ki eNOS / Ki nNOS, Table 13
[10] = male, BALB/c, mouse, brain, iv, i.v. 2 mg/kg
[11] = male, BALB/c, mouse, iv, i.v. 2 mg/kg, plasma
[12] = male, BALB/c, mouse, plasma, iv, i.v. 2 mg/kg
[13] = male, BALB/c, mouse, po, p.o. 10 mg/kg, plasma

Sequence of bsNOS (O34453 whole entry): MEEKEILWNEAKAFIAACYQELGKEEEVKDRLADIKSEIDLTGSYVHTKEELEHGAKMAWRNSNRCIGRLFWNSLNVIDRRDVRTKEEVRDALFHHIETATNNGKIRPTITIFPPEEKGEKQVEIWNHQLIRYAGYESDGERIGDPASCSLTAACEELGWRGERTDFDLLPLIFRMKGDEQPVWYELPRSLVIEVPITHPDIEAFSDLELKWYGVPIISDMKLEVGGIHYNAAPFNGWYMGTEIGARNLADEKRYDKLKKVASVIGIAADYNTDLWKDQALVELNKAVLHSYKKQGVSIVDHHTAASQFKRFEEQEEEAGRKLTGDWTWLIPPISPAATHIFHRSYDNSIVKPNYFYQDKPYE

Nc1ccc2cc(CNCCc3cccc(F)c3)ccc2n1 [Compound 17]
Kd ([1]; KS (bsNOS), Table 5): 420 ± 130 µM

CCN(CCc1cccc(F)c1)Cc1cccc(NC(=N)c2cccs2)c1 [Compound 15]
Kd ([1]; KS (bsNOS), Table 5): 119 ± 25 µM

CNCCN(c1cc(F)cc(CCc2cc(C)cc(N)n2)c1)C1CC1 [Compound 23e, N^1-(3-(2-(6-amino-4-methylpyridin-2-yl)ethyl)-5-fluorophenyl)-N^1-cyclopropyl-N^2-methylethane-1,2-diamine]
Ki ([2]; Table 9, read-out: Ki iNOS): 8.33 µM | i/n selectivity [2, 6]: 148.7 | Ki ([3]; Table 9, read-out: Ki eNOS): 7.89 µM | e/n selectivity [3, 7]: 140.9 | Ki ([4]; Table 9, read-out: Ki Rat nNOS): 0.056 µM

Cc1ccnc(CCc2cccc([C@@H](N)Cc3cc(C)cc(N)n3)c2)c1 [Compound 5S, (S)-6-(2-Amino-2-(3-(2-(4-methylpyridin-2-yl)ethyl)phenyl)ethyl)-4-methylpyridin-2-amine]
Ki ([2]; Table 13, read-out: iNOS Ki): > 100 µM | i/n selectivity [2, 8]: >110 | Ki ([3]; Table 13, read-out: eNOS Ki): 328 µM | e/n selectivity [3, 9]: 363 | Ki ([4]; Table 13, read-out: nNOS Ki): 0.903 µM

Cc1cc(N)nc(CCc2cc(C#N)cc(NCc3cccc(F)c3)c2)c1 [Compound 23, 3-(2-(6-Amino-4-methylpyridin-2-yl)ethyl)-5-((3-fluorobenzyl)amino)benzonitrile]
Kd ([1]; KS (bsNOS), Table 5): 9.6 ± 1.3 µM

Cc1cc(N)nc(CCc2cc(F)cc(N3CCNCC3)c2)c1 [Compound 23h, 6-(3-Fluoro-5-(piperazin-1-yl)phenethyl)-4-methylpyridin-2-amine]
Ki ([2]; Table 9, read-out: Ki iNOS): 3.51 µM | i/n selectivity [2, 6]: 60.2 | Ki ([3]; Table 9, read-out: Ki eNOS): 4.84 µM | e/n selectivity [3, 7]: 82.8 | Ki ([4]; Table 9, read-out: Ki Rat nNOS): 0.058 µM

Nc1ccc2ccc(CCNCc3cccc(F)c3)cc2n1 [Compound 18]
Kd ([1]; KS (bsNOS), Table 5): 0.97 ± 0.04 µM

Cc1ccnc(CCc2cccc([C@H](N)Cc3cc(C)cc(N)n3)c2)c1 [Compound 5R, (R)-6-(2-Amino-2-(3-(2-(4-methylpyridin-2-yl)ethyl)phenyl)ethyl)-4-methylpyridin-2-amine]
Ki ([2]; Table 13, read-out: iNOS Ki): > 100 µM | i/n selectivity [2, 8]: >22 | e/n selectivity [3, 9]: 240 | Ki ([4]; Table 13, read-out: nNOS Ki): 4.37 µM

Cc1cc(N)nc(CCc2cccc(C(O)Cc3cc(C)cc(N)n3)c2)c1 (stereo not shown) [Compound 10]
Kd ([1]; KS bsNOS, imidazole displacement, Tables 1 and 4): 1.89 µM

CNCCN(C)c1cc(C#N)cc(CCc2cc(C)cc(N)n2)c1 [Compound 19c, 3-(2-(6-Amino-4-methylpyridin-2-yl)ethyl)-5-(methyl(2-(methylamino)ethyl)amino)benzonitrile]
AUClast ([5]; i.v. 2 mg/kg, brain): 789.07 ng·h/g | CL ([5]; i.v. 2 mg/kg, brain): 21.18 mL/min/kg | C0 ([5]; i.v. 2 mg/kg, brain): 100.28 ng/g | CL ([5]; i.v. 2 mg/kg, plasma): 184.16 mL/min/kg | T1/2 ([5]; i.v. 2 mg/kg, plasma): 1.12 h | clearance [5, 10]: 21 mL/min/kg | half-life [5, 10]: 24.8 h | Vd ([5]; male, BALB/c, mouse, iv, i.v. 2 mg/kg, brain): 44 L/kg | AUC(0-inf) [5, 11]: 181 ng·h/mL | AUC(0-t) [5, 11]: 180 ng·h/mL | C0 ([5]; male, BALB/c, mouse, iv, i.v. 2 mg/kg, plasma, read-out: C0): 472 ng/mL | Vd [5, 11]: 14.8 L/kg | clearance [5, 12]: 184 mL/min/kg | half-life [5, 12]: 1.1 h | Cmax ([5]; male, BALB/c, mouse, po, p.o. 10 mg/kg, brain): 39.3 ng/g | Tmax ([5]; male, BALB/c, mouse, po, p.o. 10 mg/kg, brain, read-out: Tmax): 4 h | AUC(0-inf) [5, 13]: 182 ng·h/mL | AUC(0-t) [5, 13]: 162 ng·h/mL | Cmax [5, 13]: 50.8 ng/mL | Tmax ([5]; male, BALB/c, mouse, po, p.o. 10 mg/kg, plasma, read-out: Tmax): 0.25 h | % F (oral bioavailability) ([5]; p.o. 10 mg/kg vs i.v. 2 mg/kg, AUClast used): 18% | AUClast ([5]; p.o. 10 mg/kg, brain): 673.67 ng·h/g | Tmax ([5]; p.o. 10 mg/kg, plasma): 0.25 h | Ki ([2]; Table 9, read-out: Ki iNOS): 3.67 µM | Ki ([3]; Table 9, read-out: Ki eNOS): 24.9 µM | Ki ([4]; Table 9, read-out: Ki Rat nNOS): 0.024 µM

Cc1cc(N)nc(CCc2cc(F)cc(NCc3cccc(F)c3)c2)c1 [Compound 25, 6-(3-Fluoro-5-((3-fluorobenzyl)amino)phenethyl)-4-methylpyridin-2-amine]
Kd ([1]; KS (bsNOS), Table 5): 19 ± 5 µM

Cc1cc(N)nc(CCc2cc(F)cc(NCc3cccnc3)c2)c1 [Compound 23g, 6-(3-Fluoro-5-((pyridin-3-ylmethyl)amino)phenethyl)-4-methylpyridin-2-amine]
Ki ([2]; Table 9, read-out: Ki iNOS): 11 µM | i/n selectivity [2, 6]: 10.7 | Ki ([3]; Table 9, read-out: Ki eNOS): 10.3 µM | e/n selectivity [3, 7]: 10.0 | Ki ([4]; Table 9, read-out: Ki Rat nNOS): 1.03 µM

Cc1cc(N)nc(CCc2cc(C#N)cc(N(C)CCNC3CC3)c2)c1 [Compound 21c]
Ki ([2]; Table 9, read-out: Ki iNOS): 28 µM | i/n selectivity [2, 6]: 246.6 | Ki ([3]; Table 9, read-out: Ki eNOS): 31.1 µM | e/n selectivity [3, 7]: 274.0 | Ki ([4]; Table 9, read-out: Ki Rat nNOS): 0.114 µM

Cc1cc(N)nc(CCc2cc(F)cc(NCc3ccc(F)cc3)c2)c1 [Compound 24, 6-(3-Fluoro-5-((4-fluorobenzyl)amino)phenethyl)-4-methylpyridin-2-amine]
Kd ([1]; KS (bsNOS), Table 5): 29 ± 4 µM

Cc1cc(N)nc(CCc2cc(F)cc(N(C)CCNC3CC3)c2)c1 [Compound 23c, N^1-(3-(2-(6-Amino-4-methylpyridin-2-yl)ethyl)-5-fluorophenyl)-N^2-cyclopropyl-N^1-methylethane-1,2-diamine]
Ki ([2]; Table 9, read-out: Ki iNOS): 10.9 µM | i/n selectivity [2, 6]: 217.8 | Ki ([3]; Table 9, read-out: Ki eNOS): 6.21 µM | e/n selectivity [3, 7]: 124.3 | Ki ([4]; Table 9, read-out: Ki Rat nNOS): 0.05 µM

CNCCN(C)Cc1ccc(-c2cc(C)cc(N)n2)cc1 [Compound 26, N1-(4-(6-amino-4-methylpyridin-2-yl)benzyl)-N1,N2-dimethylethane-1,2-diamine]
Kd ([1]; KS (bsNOS), Table 5): 6.3 ± 0.3 µM

CCNCCN(C)c1cc(C#N)cc(CCc2cc(C)cc(N)n2)c1 [Compound 21a]
Ki ([2]; Table 9, read-out: Ki iNOS): 11.5 µM | i/n selectivity [2, 6]: 178.0 | Ki ([3]; Table 9, read-out: Ki eNOS): 37.6 µM | e/n selectivity [3, 7]: 583.7 | Ki ([4]; Table 9, read-out: Ki Rat nNOS): 0.064 µM
